Measured values: patent US7825126B2 (The United States of America as represented by the …, priority 2004, dated 2010)
Read-outs that look alike come from different tables or passages of the source.

Key:
human A2A receptors = target: T1, human A2A receptors (Homo sapiens, UniProt P29274); assay: Binding at human A2A adenosine receptor ([3H]CGS21680, HEK-293 cell membranes); settings: [3H]CGS 21680; for Ki: mean ± s.e.m., n = 3-5, read-out: Ki(hA2AAR)
T1 construct: expressed in transfected cells
Procedure: (§1) Binding assays at the A1 and A2A receptors. […] Reaction was terminated by filtration with GF/B filters.
(§2) Statistical analysis Binding and functional parameters were calculated using Prism 5.0 software (GraphPAD, San Diego, Calif., USA). IC50 values obtained from competition curves were converted to Ki values using the Cheng-Prusoff equation.

[1] = target: T2, human A2B adenosine receptor (hA2BAR) (Homo sapiens, UniProt P29275); assay: Activation of human A2B adenosine receptor at 10 μM; format: cell-based; settings: CHO cells
T2 sequence (P29275 1-332): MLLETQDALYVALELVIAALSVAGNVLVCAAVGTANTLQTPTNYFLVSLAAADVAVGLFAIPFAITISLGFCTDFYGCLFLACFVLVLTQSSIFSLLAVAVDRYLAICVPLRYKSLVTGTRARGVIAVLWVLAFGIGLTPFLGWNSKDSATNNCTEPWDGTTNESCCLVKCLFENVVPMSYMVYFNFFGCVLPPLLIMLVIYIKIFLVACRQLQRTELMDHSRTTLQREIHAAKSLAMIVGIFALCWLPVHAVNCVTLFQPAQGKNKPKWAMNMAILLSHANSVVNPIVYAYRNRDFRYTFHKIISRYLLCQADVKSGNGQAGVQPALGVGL

human A1 receptors = target: T3, human A1 receptors (Homo sapiens, UniProt P30542); assay: Binding at human A1 adenosine receptor ([3H]R-PIA, CHO cell membranes); settings: for Ki: mean ± s.e.m., n = 3-5, read-out: Ki(hA1AR)
T3 construct: expressed in transfected cells
T3 sequence (P30542 1-326): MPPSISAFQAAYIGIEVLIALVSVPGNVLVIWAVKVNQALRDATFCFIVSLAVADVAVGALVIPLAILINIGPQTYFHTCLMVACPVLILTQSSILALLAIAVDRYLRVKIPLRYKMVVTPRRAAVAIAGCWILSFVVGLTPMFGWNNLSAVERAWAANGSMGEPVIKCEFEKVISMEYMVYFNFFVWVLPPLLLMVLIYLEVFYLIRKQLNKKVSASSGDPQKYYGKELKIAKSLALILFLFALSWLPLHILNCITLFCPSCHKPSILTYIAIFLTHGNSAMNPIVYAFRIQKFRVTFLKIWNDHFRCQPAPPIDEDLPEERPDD
Procedure: as §1, §2

[2] = target: T4, human A3 adenosine receptor (Homo sapiens, UniProt P0DMS8); assay: Cyclic AMP accumulation assay (inhibition of forskolin-stimulated cAMP), CHO cells expressing human A3 adenosine receptor; settings: 10 μM, relative to 10 μM Cl-IB-MECA
T4 sequence (P0DMS8 1-318): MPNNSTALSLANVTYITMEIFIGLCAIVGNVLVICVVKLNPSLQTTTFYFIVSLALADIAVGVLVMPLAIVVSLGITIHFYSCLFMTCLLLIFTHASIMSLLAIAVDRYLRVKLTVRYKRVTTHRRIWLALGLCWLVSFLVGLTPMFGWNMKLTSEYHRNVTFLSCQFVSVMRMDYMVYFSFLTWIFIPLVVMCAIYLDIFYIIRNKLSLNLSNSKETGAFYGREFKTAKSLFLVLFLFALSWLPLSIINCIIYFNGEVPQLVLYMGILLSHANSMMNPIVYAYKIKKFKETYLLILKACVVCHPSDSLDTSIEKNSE
Procedure: The cyclic AMP accumulation assay was performed as follows. Intracellular cyclic AMP levels were measured with a competitive protein binding method. […] After centrifugation and resuspension in medium, cells were plated in 24-well plates in 1.0 ml medium. […] The reaction was terminated by removing the supernatant, and cells were lysed upon the addition of 200 μL of 0.1 M ice-cold HCl. The cell lysate was resuspended and stored at −20° C. For determination of cyclic AMP production, protein kinase A (PKA) was incubated with [^3H]cyclic AMP (2 nM) in K2HPO4/EDTA buffer (K2HPO4, 150 mM; EDTA, 10 mM), 20 μL of the cell lysate, and 30 μL 0.1 M HCl or 50 μL of cyclic AMP solution (0-16 pmol/200 μL for standard curve). Bound radioactivity was separated by rapid filtration through Whatman GF/C filters and washed once with cold buffer. Bound radioactivity was measured by liquid scintillation spectrometry.
Forskolin (10 μM) was used to stimulate cyclic AMP levels.

[3] = target: T4, human A3 adenosine receptor; design: expressed in transfected cells; host or cells: CHO cells; settings: relative to 10 μM Cl-IB-MECA, data from literature (footnotes c, d, e, f); cited from earlier work
[4] = target: T4, human A3 adenosine receptor; assay: Binding at human A3 adenosine receptor ([125I]I-AB-MECA, CHO cell membranes); design: expressed in transfected cells; host or cells: CHO cells; settings: [125I]I-AB-MECA; mean ± s.e.m., n = 3-5; read-out: Ki(hA3AR)
Procedure: Striatal and forebrain tissues from Wistar rats were homogenized in ice-cold 50 mM Tris-HCl buffer, pH 7.4, using an electric homogenizer. The homogenate was centrifuged at 20,000 g for 10 min at 4° C., and the pellet was washed in fresh buffer. The final pellet was stored at −80° C. until the binding experiments. The protein concentration was measured using the Bradford assay. […] The mixtures were incubated at 37° C. for 60 min. […] Filters were washed three times with 9 ml ice-cold buffer. Radioactivity was determined in a Beckman 5500B γ-counter. Statistical analysis Binding and functional parameters were calculated using Prism 5.0 software (GraphPAD, San Diego, Calif., USA). IC50 values obtained from competition curves were converted to Ki values using the Cheng-Prusoff equation.

T1 sequence (P29274 whole entry): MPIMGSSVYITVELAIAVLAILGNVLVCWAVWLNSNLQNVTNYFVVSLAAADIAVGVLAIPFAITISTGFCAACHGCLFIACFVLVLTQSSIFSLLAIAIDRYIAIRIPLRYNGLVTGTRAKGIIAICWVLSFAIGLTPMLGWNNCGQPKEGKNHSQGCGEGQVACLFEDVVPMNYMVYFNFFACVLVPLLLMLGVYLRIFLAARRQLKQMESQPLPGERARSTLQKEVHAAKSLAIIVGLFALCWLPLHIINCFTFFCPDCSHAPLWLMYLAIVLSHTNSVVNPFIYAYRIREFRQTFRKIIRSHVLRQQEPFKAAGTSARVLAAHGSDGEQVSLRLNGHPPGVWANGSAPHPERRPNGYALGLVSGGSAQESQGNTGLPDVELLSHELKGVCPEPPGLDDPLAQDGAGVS

Row | SMILES | Ki (human A2A receptors) | % Activation (hA2BAR) at 10 μM [1] | % displ. at 10 μM (hA2AAR) (human A2A receptors) | further results
1 | CNC(=O)[C@@]12C[C@@H]1[C@@H](n1cnc3c(N[C@@H]4C[C@H]4c4ccccc4)nc(Cl)nc31)[C@H](O)[C@@H]2O (relative stereo) [Compound 33, (1′S,2′R,3′S,4′R,5′S)-(4′-{2-chloro-6-[(trans-2-phenylcyclopropyl)amino]purin-9-yl}-2′,3′-dihydroxybicyclo[3.1.0]hexyl)-N-methylcarboxamide] | 4.8 ± 0.2 µM | 48% | – | –
2 | CNC(=O)[C@@]12C[C@@H]1[C@@H](n1cnc3c(NCc4cccc(I)c4)nc(Cl)nc31)[C@H](O)[C@@H]2O [Compound 4, reference compound] | 1.6 ± 0.4 µM | – | – | Ki (human A1 receptors): 0.065 ± 0.017 µM; % Activation (hA3AR) at 10 μM [2]: 3 ± 2%
3 | OC[C@H]1O[C@@H](n2cnc3c(NCc4cccc(Cl)c4)ncnc32)[C@H](O)[C@@H]1O [Compound 8, reference compound] | 1.4 ± 0.2 µM | – | – | Ki (human A1 receptors): 0.02 ± 0.003 µM; % Activation (hA3AR) at 10 μM [3]: 80 ± 3^d %
4 | CNC(=O)[C@@]12C[C@@H]1[C@H](n1cnc3c(NC)nc(N)nc31)[C@H](O)[C@@H]2O [Compound 15, (1′S,2′R,3′S,4′S,5′S)-4′-[6-Methylamino-2-amino-purin-9-yl]-2′,3′-dihydroxy-bicyclo[3.1.0]hexane-1′-carboxylic acid methylamide] | – | – | 17% | –
5 | CNC(=O)[C@@]12C[C@@H]1[C@@H](n1cnc3c(NCc4cccc(I)c4)ncnc31)[C@H](O)[C@@H]2O [Compound 16] | 6.2 ± 0.1 µM | – | – | Ki (human A1 receptors): 0.7 ± 0.27 µM; % Activation (hA3AR) at 10 μM [3]: 100^e %
6 | CNC(=O)C12CC1C(n1cnc3c(NCc4cccc(F)c4)nc(Cl)nc31)C(O)C2O (stereo not drawn) [Compound 19, (1′S,2′R,3′S,4′S,5′S)-4′-[6-(3-Fluorobenzylamino)-2-chloro-purin-9-yl]-2′,3′-dihydroxy-bicyclo[3.1.0]hexane-1′-carboxylic acid methylamide] | 5.1 ± 0.2 µM | 28% | – | –
7 | CNC(=O)[C@@]12C[C@@H]1[C@H](n1cnc3c(NCc4cc(Cl)ccc4Cl)nc(Cl)nc31)[C@H](O)[C@@H]2O [Compound 20, (1′S,2′R,3′S,4′S,5′S)-4′-[6-(2,5-Dichlorobenzylamino)-2-chloro-purin-9-yl]-2′,3′-dihydroxy-bicyclo[3.1.0]hexane-1′-carboxylic acid methyl amide] | 1.3 ± 0.1 µM | 32% | – | –
8 | CNC(=O)C12CC1C(n1cnc3c(NCc4cc(I)ccc4Cl)nc(Cl)nc31)C(O)C2O (stereo not drawn) [Compound 21, (1′S,2′R,3′S,4′S,5′S)-4′-[6-(2-Chloro-5-iodo-benzylamino)-2-chloro-purin-9-yl]-2′,3′-dihydroxy-bicyclo[3.1.0]hexane-1′-carboxylic acid methylamide] | 0.48 ± 0.02 µM | 58% | – | –
9 | CNC(=O)C12CC1C(n1cnc3c(NCc4cc(Cl)ccc4OC)nc(Cl)nc31)C(O)C2O (stereo not drawn) [Compound 22, (1′S,2′R,3′S,4′S,5′S)-4′-[6-(5-Chloro-2-methoxy-benzylamino)-2-chloro-purin-9-yl]-2′,3′-dihydroxy-bicyclo[3.1.0]hexane-1′-carboxylic acid methylamide] | 1.2 ± 0.1 µM | 37% | – | –
10 | CNC(=O)C12CC1C(n1cnc3c(NCc4cc(Cl)ccc4OCC(N)=O)nc(Cl)nc31)C(O)C2O (stereo not drawn) [Compound 23, (1′S,2′R,3′S,4′S,5′S)-4′-[6-(5-Chloro-2-(aminocarbonylmethyloxy)-benzylamino)-2-chloro-purin-9-yl]-2′,3′-dihydroxy-bicyclo[3.1.0]hexane-1′-carboxylic acid methylamide] | 0.8 ± 0.07 µM | – | – | –
11 | CNC(=O)C12CC1C(n1cnc3c(NCc4cc(I)ccc4OC)nc(Cl)nc31)C(O)C2O (stereo not drawn) [Compound 25, (1′S,2′R,3′S,4′S,5′S)-4′-[6-(5-Iodo-2-methoxy-benzylamino)-2-chloro-purin-9-yl]-2′,3′-dihydroxy-bicyclo[3.1.0]hexane-1′-carboxylic acid methylamide] | 0.43 ± 0.03 µM | 46% | – | –
12 | CNC(=O)C12CC1C(n1cnc3c(NCc4ccccc4C)nc(Cl)nc31)C(O)C2O (stereo not drawn) [Compound 27, (1′S,2′R,3′S,4′S,5′S)-4′-[6-(2-Methyl-benzylamino)-2-chloro-purin-9-yl]-2′,3′-dihydroxy-bicyclo[3.1.0]hexane-1′-carboxylic acid methylamide] | 3.8 ± 0.2 µM | 24% | – | –
13 | CNC(=O)C12CC1C(n1cnc3c(NCc4cccc(C)c4)nc(Cl)nc31)C(O)C2O (stereo not drawn) [Compound 28, (1′S,2′R,3′S,4′S,5′S)-4′-[6-(3-Methyl-benzylamino)-2-chloro-purin-9-yl]-2′,3′-dihydroxy-bicyclo[3.1.0]hexane-1′-carboxylic acid methylamide] | 3.7 ± 0.6 µM | 46% | – | –
14 | CNC(=O)C12CC1C(n1cnc3c(NCc4cccc(C#CCO)c4)nc(Cl)nc31)C(O)C2O (stereo not drawn) [Compound 29, (1′S,2′R,3′S,4′S,5′S)-4′-[6-(3-(3-Hydroxypropynyl)-benzylamino)-2-chloro-purin-9-yl]-2′,3′-dihydroxy-bicyclo[3.1.0]hexane-1′-carboxylic acid methylamide] | – | 28% | 56% | –
15 | CNC(=O)C12CC1C(n1cnc3c(NCc4cc(C#CCO)ccc4Cl)nc(Cl)nc31)C(O)C2O (stereo not drawn) [Compound 30, (1′S,2′R,3′S,4′S,5′S)-4′-[6-(2-Chloro-5-(3-hydroxypropynyl)-benzylamino)-2-chloro-purin-9-yl]-2′,3′-dihydroxy-bicyclo[3.1.0]hexane-1′-carboxylic acid methylamide] | – | 6% | 12% | % displ. at 10 μM (hA1AR) (human A1 receptors; 10 μM): 14%; % Activation (hA3AR) at 10 μM [2]: 108 ± 5%; Ki [4]: 0.217 ± 0.027 µM
16 | CNC(=O)C12CC1C(n1cnc3c(NCc4ccc(N)cc4)nc(Cl)nc31)C(O)C2O (stereo not drawn) [Compound 31a, (1′S,2′R,3′S,4′S,5′S)-4′-[6-(4-Amino-benzylamino)-2-chloro-purin-9-yl]-2′,3′-dihydroxy-bicyclo[3.1.0]hexane-1′-carboxylic acid methylamide] | – | 22% | 28% | –
17 | CNC(=O)[C@@]12C[C@@H]1[C@@H](n1cnc3c(NCc4ccc(N)c(I)c4)nc(Cl)nc31)[C@H](O)[C@@H]2O [Compound 31b] | 1.1 ± 0.1 µM | – | – | –
18 | CNC(=O)C12CC1C(n1cnc3c(NCc4cccnc4)nc(Cl)nc31)C(O)C2O (stereo not drawn) [Compound 32, (1′S,2′R,3′S,4′S,5′S)-4′-[6-(3-Pyridylmethylamino)-2-chloro-purin-9-yl]-2′,3′-dihydroxy-bicyclo[3.1.0]hexane-1′-carboxylic acid methylamide] | – | 4% | 33% | –
19 | CCOC(=O)[C@@]12C[C@@H]1[C@H](n1cnc3c(NCc4cccc(Cl)c4)nc(I)nc31)[C@H](O)[C@@H]2O [Compound 35, (1′S,2′R,3′S,4′S,5′S)-4′-[6-(3-Chlorobenzylamino)-2-iodo-purin-9-yl]-2′,3′-dihydroxy-bicyclo[3.1.0]hexane-1′-carboxylic acid ethyl ester] | – | – | 43% | –
20 | CNC(=O)C12CC1C(n1cnc3c(NCc4cccc(Cl)c4)nc(SC)nc31)C(O)C2O (stereo not drawn) [Compound 36] | – | – | 52% | % Activation (hA3AR) at 10 μM [2]: 100 ± 4%
